The values that follow come from patent publication US20150322051A1, “Macrocyclic picolinamides as fungicides” (Dow AgroSciences LLC, priority 2014, published 2015).

For assay [1], the system named is Erysiphe cichoracearum (ERYSCI). Description: Powdery mildew of cucumber (ERYSCI) whole-plant fungicidal test. It counts as in vivo. The conditions noted are these: 1 Day Protectant.
In assay [2] the test system is Uncinula necator (UNCINE). Kind of assay: Grape powdery mildew (UNCINE) whole-plant fungicidal test. It counts as in vivo. The conditions noted are these: 1 Day Protectant.
Assay [3] has as its system Mycosphaerella graminicola; anamorph: Septoria tritici (SEPTTR). Kind of assay: Leaf blotch of wheat (SEPTTR) whole-plant fungicidal test. The assay is classed as in vivo. Particulars: Zymoseptoria tritici, topical, low volume (track spray) application, 121.5 g/H.
The test system of assay [4] is Glomerella lagenarium; anamorph: Colletotrichum lagenarium (COLLLA). Description: Cucumber anthracnose (COLLLA) whole-plant fungicidal test. The conditions noted are these: 1 Day Protectant. The assay is classed as in vivo. As for the experimental part: (§1) All fungicides were evaluated using the aforementioned method for their activity vs. all target diseases, unless stated otherwise. Wheat leaf blotch and brown rust activity were also evaluated using track spray applications, in which case the fungicides were formulated as EC formulations, containing 0.1% Trycol 5941 in the spray solutions. Wheat plants (variety Yuma) were grown from seed in a greenhouse in 50% mineral soil/50% soil-less Metro mix until the first leaf was fully emerged, with 7-10 seedlings per pot. These plants were inoculated with an aqueous spore suspension of Septoria tritici either prior to or after fungicide treatments. After inoculation the plants were kept in 100% relative humidity (one day in a dark dew chamber followed by two to three days in a lighted dew chamber at 20° C.) to permit spores to germinate and infect the leaf. The plants were then transferred to a greenhouse set at 20° C. for disease to develop. When disease symptoms were fully expressed on the 1st leaves of untreated plants, infection levels were assessed on a scale of 0 to 100 percent disease severity. Percent disease control was calculated using the ratio of disease severity on treated plants relative to untreated plants. Cucumber seedlings (variety Bush Pickle) were propagated in soil-less Metro mix, with each pot having one plant, and used in the test when 12 to 14 days old. […]

Assay [5] deals with Cercospora beticola (CERCBE). Kind of assay: Leaf spot of sugar beets (CERCBE) whole-plant fungicidal test. It counts as in vivo. The conditions noted are these: sugar beet, 1 Day Protectant. The procedure: as §1, with “Sugar beet plants” for “Cucumber seedlings”, “HH88)” for “Bush Pickle)”, “grown” for “propagated”, “mix” for “mix, with each pot having one plant,”, “trimmed regularly” for “used in the test when 12”, “maintain a uniform plant size prior to test.” for “14 days old.”

The test system of assay [6] is Phakopsora pachyrhizi (PHAKPA). Description: Asian soybean rust (PHAKPA) whole-plant fungicidal test.
The test system of assay [7] is Venturia inaequalis (VENTIN). Description: Apple scab (VENTIN) whole-plant fungicidal test. The conditions noted are these: 1 Day Protectant. It counts as in vivo.
The test system of assay [8] is Leptosphaeria nodorum (LEPTNO). Kind of assay: Wheat glume blotch (LEPTNO) whole-plant fungicidal test. The assay is classed as in vivo. The conditions noted are these: 1 Day Protectant.
Assay [9] deals with Rhyncosporium secalis (RHYNSE). Description: Barley scald (RHYNSE) whole-plant fungicidal test. The assay is classed as in vivo. Particulars: 1 Day Protectant. The procedure: as §1, with “Barley” for “Cucumber”, “Harrington)” for “Bush Pickle)”, “8 to 12 plants,” for “one plant,”, “first leaf was fully emerged.” for “12 to 14 days old.”

SMILES strings stand for the structures. Read-outs that look alike come from different tables or passages of the source.

Regarding `CCCC[C@@H]1[C@@H](Cc2ccc(C(F)(F)F)cc2)CCC[C@H](NC(=O)c2nccc(OC)c2OCOC(C)=O)C(=O)O[C@H]1C` [Compound 3], the “Disease Control at 100 ppm ERYSCI 1DP” value in assay [1] is on record as “A (>70)”. Moreover, the “Disease Control at 100 ppm UNCINE 1DP” value in assay [2] is reported as “A (>70)”. Further, the pest or weed control at 121.5 g/ha is over 70% in assay [3] (24 h, 1 Day Protectant, read-out: Low Volume activity at 121.5 g/H SEPTTR 1DP (% disease control rating)) and over 70% in [3] (72 h, 3 Day Curative, read-out: Low Volume activity at 121.5 g/H SEPTTR 3DC (% disease control rating)). The “Disease Control at 100 ppm COLLLA 1DP” value in assay [4] is listed as “A (>70)”. The “Disease Control at 100 ppm CERCBE 1DP” value in [5] is “B (≦70)”. In addition, the “Disease Control at 25 ppm PHAKPA 1DP” value in [6] (1 Day Protectant) is “B (≦70)”. Further, in [6] (3 Day Curative), the “Disease Control at 25 ppm PHAKPA 3DC” value is reported as “B (≦70)”. For the same molecule, the “Disease Control at 100 ppm VENTIN 1DP” value in assay [7] is on record as “A (>70)”. The “Disease Control at 100 ppm LEPTNO 1DP” value in assay [8] is “A (>70)”. The “Disease Control at 100 ppm RHYNSE 1DP” value in assay [9] is “B (≦70)”.
